Laboratory results taken from ChEMBL document CHEMBL2073906, “Interactions of ofloxacin and erythromycin with the multidrug resistance protein (MRP) in MRP-overexpressing human leukemia cells” (Antimicrob Agents Chemother, 2000).

Legend:
[1] = molecular target: T1, Multidrug resistance-associated protein 1 (Homo sapiens, UniProt P33527); test: TP_TRANSPORTER: increase in Vincristine intracellular accumulation (Vincristine: 0.03 uM, Ofloxacin: 21.7 mg/mL) in HL60R cells: flow cytometric analysis; type: functional, cell-based
T1 sequence (P33527 whole entry): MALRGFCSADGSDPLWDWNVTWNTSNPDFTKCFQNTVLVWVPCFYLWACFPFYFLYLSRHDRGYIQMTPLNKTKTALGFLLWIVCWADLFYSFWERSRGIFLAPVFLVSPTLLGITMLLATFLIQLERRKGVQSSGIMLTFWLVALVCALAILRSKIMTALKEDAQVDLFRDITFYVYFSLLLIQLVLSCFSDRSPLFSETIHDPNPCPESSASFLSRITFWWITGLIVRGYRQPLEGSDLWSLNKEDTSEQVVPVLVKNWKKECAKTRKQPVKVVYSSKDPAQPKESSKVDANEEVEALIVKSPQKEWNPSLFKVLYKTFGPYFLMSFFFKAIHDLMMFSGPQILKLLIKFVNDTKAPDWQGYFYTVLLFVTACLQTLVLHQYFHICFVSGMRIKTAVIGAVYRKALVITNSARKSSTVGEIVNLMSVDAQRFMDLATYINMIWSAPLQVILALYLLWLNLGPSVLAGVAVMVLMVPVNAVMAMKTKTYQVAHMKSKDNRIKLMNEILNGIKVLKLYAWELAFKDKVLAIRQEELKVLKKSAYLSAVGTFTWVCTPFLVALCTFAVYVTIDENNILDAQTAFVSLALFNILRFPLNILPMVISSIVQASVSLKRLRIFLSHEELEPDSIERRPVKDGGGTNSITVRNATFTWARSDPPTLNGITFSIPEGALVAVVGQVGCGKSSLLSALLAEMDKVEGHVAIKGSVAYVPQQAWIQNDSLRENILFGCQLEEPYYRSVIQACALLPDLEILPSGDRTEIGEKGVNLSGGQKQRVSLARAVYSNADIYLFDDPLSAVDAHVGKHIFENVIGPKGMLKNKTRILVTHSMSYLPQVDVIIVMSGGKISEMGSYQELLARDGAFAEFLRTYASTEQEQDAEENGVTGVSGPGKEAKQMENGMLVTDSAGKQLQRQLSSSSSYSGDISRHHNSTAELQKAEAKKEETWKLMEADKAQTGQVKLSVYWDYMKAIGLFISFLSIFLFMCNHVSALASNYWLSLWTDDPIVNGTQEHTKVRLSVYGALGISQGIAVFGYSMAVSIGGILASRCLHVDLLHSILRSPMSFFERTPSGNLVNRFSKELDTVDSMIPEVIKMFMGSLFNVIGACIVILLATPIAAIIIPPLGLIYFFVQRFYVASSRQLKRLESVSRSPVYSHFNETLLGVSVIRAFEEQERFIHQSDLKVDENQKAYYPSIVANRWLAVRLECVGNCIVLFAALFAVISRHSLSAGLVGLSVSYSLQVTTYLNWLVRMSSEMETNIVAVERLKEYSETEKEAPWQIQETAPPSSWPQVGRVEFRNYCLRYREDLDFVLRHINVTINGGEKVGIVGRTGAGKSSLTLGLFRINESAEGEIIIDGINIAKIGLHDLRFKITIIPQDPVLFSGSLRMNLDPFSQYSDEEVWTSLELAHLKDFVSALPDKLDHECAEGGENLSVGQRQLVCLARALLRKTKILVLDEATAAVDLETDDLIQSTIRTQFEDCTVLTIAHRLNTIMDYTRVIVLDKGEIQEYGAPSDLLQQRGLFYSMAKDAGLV

[2] = molecular target: T1, Multidrug resistance-associated protein 1; test: TP_TRANSPORTER: increase in Vincristine intracellular accumulation (Vincristine: 0.03 uM, Erythromycin: 14.7 mg/mL) in HL60R cells: flow cytometric analysis; type: functional, cell-based

Row | Structure (SMILES) | Activity [1] | Activity [2]
1 | CC1COc2c(N3CCN(C)CC3)c(F)cc3c(=O)c(C(=O)O)cn1c23 (configuration not stated) [OFLOXACIN] | 0.29 | 
2 | CC[C@H]1OC(=O)[C@H](C)[C@@H](O[C@H]2C[C@@](C)(OC)[C@@H](O)[C@H](C)O2)[C@H](C)[C@@H](O[C@@H]2O[C@H](C)C[C@H](N(C)C)[C@H]2O)[C@](C)(O)C[C@@H](C)C(=O)[C@H](C)[C@@H](O)[C@]1(C)O [ERYTHROMYCIN] |  | 0.16
